The record followed here is patent publication US7138242B2, “Olfactory receptor expression libraries and methods of making and using them” (Johns Hopkins University, priority 1998, dated 2006).

Entries after “also recorded” stand apart in the source; their conditions may differ.

Assay [1] has as its system mouse olfactory receptor TM II–VII chimeric receptor library (pools of clones). The assay is described as follows: Ca2+ imaging screen of 80 library chimeric receptors (10 pools of eight constructs) against 26 odorants in HEK-293 cells with Gα15,16. The format is cell-based. Here is the method:
HEK-293 cells (obtained from the ATCC) were grown in DMEM supplemented with 10% fetal bovine serum, penicillin (100 U/ml), streptomycin (100 μg/ml) and L-glutamine (2 mM) in 5% CO2. Before transfection, the cells were seeded onto poly-L-lysine-coated 10.5×35×0.17 mm glass coverslips (Bellco) placed in the 60 mm culture dishes. Calcium phosphate-mediated transfections were performed in a 60 mm dish with 3 to 4 μg of receptor construct DNA, 1 μg of pCIS Gα 15 and Gα16 expression vector (Offermanns (1995) supra). 2 μg of pBluescript carrier DNA, and 0.3 μg of pRSV-T antigen expression vector (Gorman (1990) DNA and Protein Eng. Tech. 2:3–9). After 5 to 7 hr incubation, the cells were washed once with PBS containing 0.5 mM EDTA and 10% DMSO, then with PBS before continuing growth in regular media for 40–50 hr.
(§1) These transfected cells were then tested for their ability to functionally respond to ligand-receptor binding. The ligand, the adrenergic agonist isoproterenol, was “bath” applied to the transfected cells and single cell Ca^2+-imaging was performed. Cells were pre-loaded with the Ca^2+-sensitive fluorescent dye FURA-2 AM (Molecular Probes) by bathing in serum-free DMEM containing 4 μM of the membrane permeant chemical for 1 hr at 37° C., then washed with a standard bath solution (130 mM NaCl, 2 mM CaCl2, 5 mM KCl, 10 mM glucose, 10 mM Na.HEPES/pH 7.4 at room temperature). For each experiment, a glass coverslip with FURA-2 loaded HEK 293 cells was introduced into an open-topped, longitudinal microperfusion chamber (300 μl bath volume mounted on a Zeiss Axiovert 135 microscope equipped with an F Fluar 40×/1.30 oil-immersion lens. The cells were superfused with test solutions typically for 30 to 40 seconds (5 ml/application) and washed out with 5 ml of bath solution at the end of each application. Each test solution was freshly diluted and manually applied with a micropipette into the chamber. Because of this manual procedure, there could be several seconds of delay in actual application from electronic tick marks used to define the beginning of application in each graph. At the same time, the solution flow might not be completely laminar. In most cases, the onset of Ca2+ rise in response to a specific solution occurred within 15 seconds of the beginning of solution application, though longer delays were sometimes observed. Acetylcholine was applied at the end of each experiment at 10 μM for 15–20 seconds. Ratiometric Ca^2+ measurements were performed as described by Grynkiewicz (1985) 260:3440–3450, with modifications using the Zeiss/Attofluor-Ratiovision imaging system. At 5-second intervals, the cells were sequentially illuminated for less than 100 ms, first at 340 nm and then at 380 nm. Fluorescence emission at 510 nm was monitored for each excitation wavelength via an intensified CCD camera. Averaged pixel intensities within 40 to 100 regions of interest, corresponding to 40 to 100 individual cells, were digitized and stored on a computer. Attofluor-Ratiovision software (Atto Instruments) was used to determine the Ca^2+-dependent fluorescence signal expressed as the F340/F380 ratio.
The 7-transmembrane domain region TM II–VII expressing vector libraries of the invention were expressed in this cell expression system. Various odorant were screened for their ability to generate a physiologic response in the form of a calcium transient, as above. Eighty plasmid clones arrayed in microtiter plates were pooled into 10 groups of eight constructs each, and co-transfected with Gα15,16 into HEK-293 cells. […]

Assay [2] relates to I-C6 chimeric olfactory receptor (TM II–VII). The assay can be described thus: Ca2+ imaging, individual clone I-C6 (TM II–VII chimeric) in HEK-293 cells with Gα15,16. The conditions noted are these: (−) vs (+) isomer. The format is cell-based, mouse. Here is the method: These transfected cells were then tested for their ability to functionally respond to ligand-receptor binding. The ligand, the adrenergic agonist isoproterenol, was “bath” applied to the transfected cells and single cell Ca^2+-imaging was performed. Cells were pre-loaded with the Ca^2+-sensitive fluorescent dye FURA-2 AM (Molecular Probes) by bathing in serum-free DMEM containing 4 μM of the membrane permeant chemical for 1 hr at 37° C., then washed with a standard bath solution (130 mM NaCl, 2 mM CaCl2, 5 mM KCl, 10 mM glucose, 10 mM Na.HEPES/pH 7.4 at room temperature). […] Fluorescence emission at 510 nm was monitored for each excitation wavelength via an intensified CCD camera. […] Attofluor-Ratiovision software (Atto Instruments) was used to determine the Ca^2+-dependent fluorescence signal expressed as the F340/F380 ratio. […]

The subject of assay [3] is full-length I-C6 receptor fused to translocation domain (rhodopsin tag). The assay is described as follows: Ca2+ imaging, full-length I-C6 receptor with rhodopsin tag in HEK-293 cells. The format is cell-based, mouse. Here is the method:
PCR products were digested with PstI and BspEI restriction enzymes before size fractionation, purification and ligation into the pCMV-Rho/M4NC vector (see FIG. 1A). The vector ligation products were transformed into E. coli and 480 clones were placed in 96-well plates. […] Pools of cells from a single column of the plates (8 wells) were grown in a 50 ml culture and plasmid DNA prepared. Insert-containing vectors containing: the 5′-untranslated region of the rhodopsin gene, which included its coding region for the initiation methionine and the next 19 residues; joined to a full-length cDNA for a mouse olfactory receptor (M4 or I-C6), under the control of the CMV promoter, were also prepared. The full-length coding region of olfactory receptors mI7 and I-C6 were obtained by screening a mouse (129 SV/J) genomic phage (λFIX-II) library (2×10^6 independent clones) using ^32P-labeled DNA fragments (of TMII through VII sequence) of the respective receptors under stringent conditions (hybridized at 0.2×SSC at 65° C.). DNA fragments encoding the full-length receptors were cloned into pBluescript (Stratagene) and sequenced.
as §1
To determine if these physiologic responses were caused by ligand interaction with a full-length 7-membrane receptor, a genomic clone of the entire I-C6 receptor coding sequence was isolated and used to make a chimeric molecule incorporating the tranlocation domain of the invention (the “rhodopsin tag” sequence). The full-length I-C6 receptor retained the same stereo-selectivity as a chimeric receptor construct whose only I-C6 sequence was the transmembrane domains II through VII (i.e., the odorant/ligand binding domain). […]

Turning to `CC(C)=CCCC(C)CC=O` (single isomer, unassigned; (-)) [(−) citronellal], in assay [1] (10 μM, odorants applied sequentially), the “intracellular Ca2+ response of a clone pool” value was “transient increases in Ca^2+”. Besides, the “response of a library receptor” value in assay [1] (micromolar concentrations, three receptors, respectively) is reported as “responded”. Moreover, the entries for the “stereo-selectivity of the Ca2+ response” value in assay [2] and in assay [3] ((−) vs (+) isomer) were “selective; also recorded: preferred” and “preferred”, respectively. Moreover, the “qualitative rank order of potency for binding and activating the I-C6 receptor” value in assay [3] was “(−)citronellal>(+)citronellal, citronellyl bromide>28 other odorants”. Besides, the “intracellular Ca2+ response” value is recorded as “responding” in assay [3] (1 μM) and “no response” in assay [3] (control experiments lacking Gα15,16). In assay [3] (applied immediately after 30 μM (+) citronellal (desensitization)), the “intracellular Ca2+ response after a prior positive response” value was “lack of response”.
